The results in this text go back to BindingDB's records for doi:10.1124/jpet.301.1.37 (National Institutes of Health, 2002).

As a reminder, the Ki is the equilibrium dissociation constant of an inhibitor or competing ligand from its target. Read a high Ki as a looser hold on the target.

Where “and” joins values, the source holds several entries; their conditions need not be identical. Equal entries are not always repeated.

Assay [1] has as its target T1, VIP peptides (Cavia porcellus, UniProt P04566).
T1 sequence (P04566 whole entry): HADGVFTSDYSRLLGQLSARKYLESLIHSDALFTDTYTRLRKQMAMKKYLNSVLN

The target in assay [2] is T2, VIP peptides (Rattus norvegicus, UniProt P01283).
T2 sequence (P01283 whole entry): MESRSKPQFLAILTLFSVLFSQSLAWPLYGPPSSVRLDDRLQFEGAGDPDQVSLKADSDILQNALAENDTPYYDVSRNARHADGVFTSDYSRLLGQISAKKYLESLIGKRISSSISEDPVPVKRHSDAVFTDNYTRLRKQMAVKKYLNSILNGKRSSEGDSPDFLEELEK

Assay [3] addresses T3, VIP peptides (Homo sapiens, UniProt P01282).
T3 sequence (P01282 whole entry): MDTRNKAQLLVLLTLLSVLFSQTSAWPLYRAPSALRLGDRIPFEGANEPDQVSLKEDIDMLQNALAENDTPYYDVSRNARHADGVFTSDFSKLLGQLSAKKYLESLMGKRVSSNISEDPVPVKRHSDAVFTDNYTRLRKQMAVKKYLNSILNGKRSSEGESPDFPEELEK

Regarding `CC[C@H](C)[C@H](NC(=O)[C@H](CO)NC(=O)[C@H](CC(N)=O)NC(=O)[C@H](CC(C)C)NC(=O)[C@H](Cc1ccc(O)cc1)NC(=O)[C@H](CCCCN)NC(=O)[C@H](CCCCN)NC(=O)[C@@H](NC(=O)[C@H](C)NC(=O)[C@H](CCSC)NC(=O)[C@H](CCC(N)=O)NC(=O)[C@H](CCCCN)NC(=O)[C@H](CCCN=C(N)N)NC(=O)[C@H](CC(C)C)NC(=O)[C@H](CCCN=C(N)N)NC(=O)[C@@H](NC(=O)[C@H](Cc1ccc(O)cc1)NC(=O)[C@H](CC(N)=O)NC(=O)[C@H](CC(=O)O)NC(=O)[C@@H](NC(=O)[C@H](Cc1ccccc1)NC(=O)[C@@H](NC(=O)[C@@H](C)NC(=O)[C@H](CC(=O)O)NC(=O)[C@H](CO)NC(=O)[C@@H](N)Cc1cnc[nH]1)C(C)C)[C@@H](C)O)[C@@H](C)O)C(C)C)C(=O)N[C@@H](CC(C)C)C(=O)N[C@@H](CC(N)=O)C(N)=O` [VIP [D-Ala4]], the Ki in assay [1] is 16.2 nM; in assay [2] it was 1.1 nM and 7.2 nM and 10.5 nM.

For the compound `CC[C@H](C)[C@H](NC(=O)[C@H](CO)NC(=O)[C@H](CC(N)=O)NC(=O)[C@H](CC(C)C)NC(=O)[C@H](Cc1ccc(O)cc1)NC(=O)[C@H](CCCCN)NC(=O)[C@H](CCCCN)NC(=O)[C@@H](NC(=O)[C@H](C)NC(=O)[C@H](CCSC)NC(=O)[C@H](CCC(N)=O)NC(=O)[C@H](CCCCN)NC(=O)[C@H](CCCN=C(N)N)NC(=O)[C@H](CC(C)C)NC(=O)[C@H](CCCN=C(N)N)NC(=O)[C@@H](NC(=O)[C@H](Cc1ccc(O)cc1)NC(=O)[C@H](CC(N)=O)NC(=O)[C@H](CC(=O)O)NC(=O)[C@@H](NC(=O)[C@H](Cc1ccccc1)NC(=O)[C@@H](NC(=O)[C@H](C)NC(=O)[C@H](CC(=O)O)NC(=O)[C@H](CO)NC(=O)[C@@H](N)Cc1cnc[nH]1)C(C)C)[C@@H](C)O)[C@@H](C)O)C(C)C)C(=O)N[C@@H](CC(C)C)C(=O)N[C@H](CC(N)=O)C(N)=O` [VIP [D-Asn28]], the Ki is 14.8 nM in assay [1]; 1.5 nM and 6.3 nM and 11.8 nM in assay [2].

In the case of `CC[C@H](C)[C@H](NC(=O)[C@H](CO)NC(=O)[C@H](CC(N)=O)NC(=O)[C@H](CC(C)C)NC(=O)[C@H](Cc1ccc(O)cc1)NC(=O)[C@H](CCCCN)NC(=O)[C@H](CCCCN)NC(=O)[C@@H](NC(=O)[C@H](C)NC(=O)[C@H](CCSC)NC(=O)[C@H](CCC(N)=O)NC(=O)[C@H](CCCCN)NC(=O)[C@H](CCCN=C(N)N)NC(=O)[C@H](CC(C)C)NC(=O)[C@H](CCCN=C(N)N)NC(=O)[C@@H](NC(=O)[C@H](Cc1ccc(O)cc1)NC(=O)[C@H](CC(N)=O)NC(=O)[C@H](CC(=O)O)NC(=O)[C@@H](NC(=O)[C@H](Cc1ccccc1)NC(=O)[C@@H](NC(=O)[C@H](C)NC(=O)[C@@H](CC(=O)O)NC(=O)[C@H](CO)NC(=O)[C@@H](N)Cc1cnc[nH]1)C(C)C)[C@@H](C)O)[C@@H](C)O)C(C)C)C(=O)N[C@@H](CC(C)C)C(=O)N[C@@H](CC(N)=O)C(N)=O` [VIP [D-Asp3]], the Ki was 9.1 nM in assay [1]; 0.93 nM and 5.4 nM and 6.5 nM in assay [2].

Take `CC[C@H](C)[C@H](NC(=O)[C@H](CO)NC(=O)[C@H](CC(N)=O)NC(=O)[C@H](CC(C)C)NC(=O)[C@H](Cc1ccc(O)cc1)NC(=O)[C@H](CCCCN)NC(=O)[C@@H](CCCCN)NC(=O)[C@@H](NC(=O)[C@H](C)NC(=O)[C@H](CCSC)NC(=O)[C@H](CCC(N)=O)NC(=O)[C@H](CCCCN)NC(=O)[C@H](CCCN=C(N)N)NC(=O)[C@H](CC(C)C)NC(=O)[C@H](CCCN=C(N)N)NC(=O)[C@@H](NC(=O)[C@H](Cc1ccc(O)cc1)NC(=O)[C@H](CC(N)=O)NC(=O)[C@H](CC(=O)O)NC(=O)[C@@H](NC(=O)[C@H](Cc1ccccc1)NC(=O)[C@@H](NC(=O)[C@H](C)NC(=O)[C@H](CC(=O)O)NC(=O)[C@H](CO)NC(=O)[C@@H](N)Cc1cnc[nH]1)C(C)C)[C@@H](C)O)[C@@H](C)O)C(C)C)C(=O)N[C@@H](CC(C)C)C(=O)N[C@@H](CC(N)=O)C(N)=O` [VIP [D-Lys20]]: the Ki in assay [1] was 17.3 nM; in assay [3], 4.2 nM and 22.4 nM and 16.9 nM.

With `CC[C@H](C)[C@H](NC(=O)[C@H](CO)NC(=O)[C@H](CC(N)=O)NC(=O)[C@H](CC(C)C)NC(=O)[C@H](Cc1ccc(O)cc1)NC(=O)[C@@H](CCCCN)NC(=O)[C@H](CCCCN)NC(=O)[C@@H](NC(=O)[C@H](C)NC(=O)[C@H](CCSC)NC(=O)[C@H](CCC(N)=O)NC(=O)[C@H](CCCCN)NC(=O)[C@H](CCCN=C(N)N)NC(=O)[C@H](CC(C)C)NC(=O)[C@H](CCCN=C(N)N)NC(=O)[C@@H](NC(=O)[C@H](Cc1ccc(O)cc1)NC(=O)[C@H](CC(N)=O)NC(=O)[C@H](CC(=O)O)NC(=O)[C@@H](NC(=O)[C@H](Cc1ccccc1)NC(=O)[C@@H](NC(=O)[C@H](C)NC(=O)[C@H](CC(=O)O)NC(=O)[C@H](CO)NC(=O)[C@@H](N)Cc1cnc[nH]1)C(C)C)[C@@H](C)O)[C@@H](C)O)C(C)C)C(=O)N[C@@H](CC(C)C)C(=O)N[C@@H](CC(N)=O)C(N)=O` [VIP [D-Lys21]], the Ki in assay [1] is 100 nM; in assay [3], 93.3 nM and 118 nM and 105 nM.

As to `CC[C@H](C)[C@H](NC(=O)[C@H](CO)NC(=O)[C@H](CC(N)=O)NC(=O)[C@H](CC(C)C)NC(=O)[C@H](Cc1ccc(O)cc1)NC(=O)[C@H](CCCCN)NC(=O)[C@H](CCCCN)NC(=O)[C@@H](NC(=O)[C@H](C)NC(=O)[C@H](CCSC)NC(=O)[C@H](CCC(N)=O)NC(=O)[C@H](CCCCN)NC(=O)[C@H](CCCN=C(N)N)NC(=O)[C@H](CC(C)C)NC(=O)[C@H](CCCN=C(N)N)NC(=O)[C@H](NC(=O)[C@H](Cc1ccc(O)cc1)NC(=O)[C@H](CC(N)=O)NC(=O)[C@H](CC(=O)O)NC(=O)[C@@H](NC(=O)[C@H](Cc1ccccc1)NC(=O)[C@@H](NC(=O)[C@H](C)NC(=O)[C@H](CC(=O)O)NC(=O)[C@H](CO)NC(=O)[C@@H](N)Cc1cnc[nH]1)C(C)C)[C@@H](C)O)[C@H](C)O)C(C)C)C(=O)N[C@@H](CC(C)C)C(=O)N[C@@H](CC(N)=O)C(N)=O` [VIP [D-Thr11]], the Ki is 54.9 nM in assay [1]; 54.9 nM and 91.2 nM and 110 nM in assay [3].

In the case of `CC[C@H](C)[C@H](NC(=O)[C@H](CO)NC(=O)[C@H](CC(N)=O)NC(=O)[C@H](CC(C)C)NC(=O)[C@H](Cc1ccc(O)cc1)NC(=O)[C@H](CCCCN)NC(=O)[C@H](CCCCN)NC(=O)[C@@H](NC(=O)[C@H](C)NC(=O)[C@H](CCSC)NC(=O)[C@H](CCC(N)=O)NC(=O)[C@H](CCCCN)NC(=O)[C@H](CCCN=C(N)N)NC(=O)[C@H](CC(C)C)NC(=O)[C@H](CCCN=C(N)N)NC(=O)[C@@H](NC(=O)[C@@H](Cc1ccc(O)cc1)NC(=O)[C@H](CC(N)=O)NC(=O)[C@H](CC(=O)O)NC(=O)[C@@H](NC(=O)[C@H](Cc1ccccc1)NC(=O)[C@@H](NC(=O)[C@H](C)NC(=O)[C@H](CC(=O)O)NC(=O)[C@H](CO)NC(=O)[C@@H](N)Cc1cnc[nH]1)C(C)C)[C@@H](C)O)[C@@H](C)O)C(C)C)C(=O)N[C@@H](CC(C)C)C(=O)N[C@@H](CC(N)=O)C(N)=O` [VIP [D-Tyr10]], the Ki was 23.4 nM in assay [1]; 3.7 nM and 32.3 nM and 24.5 nM in assay [3].

With `CC[C@H](C)[C@H](NC(=O)[C@H](CO)NC(=O)[C@H](CC(N)=O)NC(=O)[C@H](CC(C)C)NC(=O)[C@H](Cc1ccc(O)cc1)NC(=O)[C@H](CCCCN)NC(=O)[C@H](CCCCN)NC(=O)[C@@H](NC(=O)[C@H](C)NC(=O)[C@H](CCSC)NC(=O)[C@H](CCC(N)=O)NC(=O)[C@H](CCCCN)NC(=O)[C@H](CCCN=C(N)N)NC(=O)[C@H](CC(C)C)NC(=O)[C@H](CCCN=C(N)N)NC(=O)[C@@H](NC(=O)[C@H](Cc1ccc(O)cc1)NC(=O)[C@H](CC(N)=O)NC(=O)[C@H](CC(=O)O)NC(=O)[C@@H](NC(=O)[C@H](Cc1ccccc1)NC(=O)[C@H](NC(=O)[C@H](C)NC(=O)[C@H](CC(=O)O)NC(=O)[C@H](CO)NC(=O)[C@@H](N)Cc1cnc[nH]1)C(C)C)[C@@H](C)O)[C@@H](C)O)C(C)C)C(=O)N[C@@H](CC(C)C)C(=O)N[C@@H](CC(N)=O)C(N)=O` [VIP [D-Val5]], the Ki is 26.3 nM in assay [1]; 6.2 nM and 44.6 nM and 25.1 nM in assay [3].

Consider “H-ASDAVFTDNYTRLRKQMAVKKYLNSILN-NH2 [VIP Ala1]”, for which the Ki in assay [1] is 95.4 nM; in assay [3], 16.9 nM and 89.1 nM and 64.5 nM.

“H-HADAVFTDNYTRLRKQMAVKKYLNSILN-NH2 [VIP Ala2]”: the Ki in assay [1] was 2.6 nM; in assay [3], 0.43 nM and 3.6 nM and 2.7 nM.

As to “H-HSDAVFTANYTRLRKQMAVKKYLNSILN-NH2 [VIP Ala8]”, the Ki is 1.2 nM in assay [1]; 0.17 nM and 1.6 nM and 1.2 nM in assay [3].

“H-HSDAVFTDNATRLRKQMAVKKYLNSILN-NH2 [VIP Ala10]”: the Ki in assay [1] was 54.9 nM; in assay [3], 61.7 nM and 56.2 nM and 44.7 nM.

As for “H-HSDAVFTDNYARLRKQMAVKKYLNSILN-NH2 [VIP Ala11]”, the Ki in assay [1] is 2.4 nM; in assay [2], 0.34 nM and 1.9 nM and 0.42 nM.

Consider “H-HSDAVFTDNYTRLRAQMAVKKYLNSILN-NH2 [VIP Ala15]”, for which the Ki is 1.9 nM in assay [1]; 2.1 nM and 16.2 nM and 15.9 nM in assay [3].

Regarding “H-HSDAVFTDNYTRLRKAMAVKKYLNSILN-NH2 [VIP Ala16]”, the inhibition constant (Ki) in assay [1] was 5.1 nM; in assay [2], 0.93 nM and 2.1 nM and 1.1 nM.

In the case of “H-HSDAVFTDNYTRLRKQMAVAKYLNSILN-NH2 [VIP Ala20]”, the Ki in assay [1] was 5.5 nM; in assay [2], 1.7 nM and 3.5 nM and 3.3 nM.

For “H-HSDAVFTDNYTRLRKQMAVKKYLNSILA-NH2 [VIP Ala28]”, the Ki in assay [1] is 4.3 nM; in assay [3], 0.54 nM and 2.7 nM and 2.8 nM.
